Assay results reported in patent publication US20190216786A1, “USE OF 2-{4-[(4-{[1-CYCLOPROPYL-3-TETRAHYDRO-2H-PYRAN-4-yl)-1H-PYRAZOL-4yl]OXY} PYRIDINE-2-yl)AMINO]PYRIDIN-2-yl}PROPAN-2-OL IN THE TREATMENT OF CANCER” (Eli Lilly and Company, priority 2016, published 2019).

Experiments:
in vivo = experiment: in vivo; set-up: species or system dogs; conditions: dog
Description: (§1) Due to the cardiac effects observed with daily dosing in preclinical models, intermittent-dosing toxicology studies administering 2-{4-[(4-{[1-cyclopropyl-3-(tetrahydro-2H-pyran-4-yl)-1H-pyrazol-4-yl]oxy}pyridin-2-yl)amino]pyridin-2-yl}propan-2-ol 4-methylbenzenesulfonate for 3 months in dogs and rats were completed to support clinical dosing. The two dosing schedules evaluated were 2 weeks of daily dosing followed by 2 weeks of no dosing (2 weeks on/2 weeks off) or 3 weeks of daily dosing followed by 1 week of no-dosing (3 weeks on/1 week off). […] Margins of safety based on the NOAELs for the 3-month studies support the proposed clinical dose range of 10 to 100 mg in patients.

[1] = 3-month intermittent-dosing toxicology study in rats; type: in vivo
Description: as §1

For `CC(C)(O)c1cc(Nc2cc(Oc3cn(C4CC4)nc3C3CCOCC3)ccn2)ccn1` [2-{4-[(4-{[1-cyclopropyl-3-(tetrahydro-2H-pyran-4-yl)-1H-pyrazol-4-yl]oxy}pyridin-2-yl)amino]pyridin-2-yl}propan-2-ol 4-methylbenzenesulfonate], the NOAEL at 3 months (in vivo) was 7.5 mg/kg, the adverse effects (in vivo) was “no adverse effects” and the cardiac effects ([1]; rat, 12 mg/kg, 3 cycles of the 3-week-on/1-week-off schedule) was “limited to aortic inflammation and degeneration in a single female animal”. For the same molecule, the “compound-related, adverse effects” value ([1]; rats, 3 months, 2-week on/2-week-off dosing schedule) was “no compound-related, adverse effects detected”.
